# Laboratory results from US20250171404A1, “PCNA INHIBITORS AND USES THEREOF” (CITY OF HOPE, priority 2022, published 2025).
# Tests used:
# [1] = tested on: more than 70 cancer cell lines; assay: Growth inhibition across cancer cell lines (GI50); assay type: cell-based; settings: read-out: median concentration to achieve 50% growth inhibition (GI50); across more than 70 cancer cell lines
# [2] = Oral pharmacokinetic study in mice; assay type: in vivo, ES1^e/SCID mice
# Experimental: FIGS. 4A-4H. Pharmacokinetics and anti-tumor growth activity of AOH1996 in vivo. FIG. 4A: After oral administration, the plasma concentrations of AOH1996 from three male and three female ES1^e/SCID mice at the indicated time points were averaged and graphed ±S.D. The inset contains PK parameters determined by a standard noncompartmental method. FIG. 4B: A similar PK study of AOH1996 was performed in dogs. FIGS. 4C-4E: Mice bearing the xenograft tumors of neuroblastoma (FIG. 4C: SK-N-BE(2)c), breast cancer (FIG. 4D: MDA-MB-468), and small-cell lung cancer (FIG. 4E: H82) were given vehicle only (black) or 40 mg/kg of AOH1996 (grey) twice daily immediately after the first measurement. Tumor sizes were measured by a dial caliper each week. Tumor volumes (0.4×L×W^2) were averaged and graphed ±S.E. (*, P<0.01). FIG. 4F: Animal body weight was monitored throughout the studies as an indicator of toxicity. Shown is a typical study results from the study of the SK-N-BE(2)c tumor model described in (FIG. 4C). FIG. 4G: The levels of phosphor-Chk1 (pChk1) and γH2A.X in SK-N-BE(2)c derived tumor samples were analyzed by IHC. Shown are representative images taken from tumors treated by vehicle only or by 40 mg/kg AOH1996. FIG. 4H: ES1^e/SCID mice bearing SK-N-AS derived xenograft tumors were treated with either 80 mg/kg of AOH1996 (black, n=7) for 8 d beginning 8 d after tumor implantation, 15 mg/kg of CPT-11 (n=8) for 3 d beginning 12 d after tumor implantation, or both agents (combination, n=8) under the same dosages and schedules as they were dosed alone. Mice implanted with the same tumor and left untreated were used as control (n=8). Shown are the survival graphs. The p values determined by the Log-rank (Mantel-Cox) test between combination treatment and each of the control groups are p=0.0003 (Combination vs. NoRx), p=0.005 (Combination vs. AOH1996 alone), and p=0.024 (Combination vs. CPT-11 alone).
# The improved stability of AOH1996 (FIGS. 12A-12E) translated into a significant benefit in the pharmacokinetics (PK).
# Pharmacokinetic (PK) study in animals. An oral dosing solution was prepared by dissolving AOH1996 (40 mg) in a mixture of Kolliphor EL (840 mg) and Poloxamer P124 (120 mg). For the mouse study, blood samples were collected from ES1^e/SCID mice (3 male and 3 female) per dosing group by cardiac puncture at 10, 20, and 30 min and 1, 2, 4, 6, and 24 h after dosing. For the dog study, blood samples were collected from 3 male beagle dogs per dosing group by venipuncture of peripheral veins at 5, 15, and 30 min and 1, 2, 4, 8, 12, and 24 h after dosing. Following removal of blood cells, plasma concentration of AOH1996 was determined by LC-MS/MS as described (Gu et al., 2018). Oral PK was determined using standard non-compartmental methods.
# [3] = tested on: DNA replication fork extension, SK-N-BE(2)-C or MDA-MB-231 cells; assay: DNA combing analysis (replication fork extension); assay type: cell-based; settings: synchronized cells, 20 minutes
# Experimental: FIGS. 7A-7E. Transcription dependent effect on DNA replication and damage. FIG. 7A: Left: Schematic of the cell fractionation procedure. Right: MDA-MB-468 cells were treated by increasing concentrations of AOH1996 (5, 50, or 500 nM) for 24 h. Cells treated with DMSO were used as control. Whole cell extract (WCE) and protein fractions associated with actively transcribed chromatin (CB:RNA+) or with low or non-transcribed chromatin (CB:RNA−) were analyzed by Western blot using antibodies against PCNA, CAF-1, and MCM7. FIG. 7B: Synchronized cancer cells were sequentially incubated in the presence of CldU (light grey) and IdU (dark grey) before and after AOH1996 treatment, respectively. […] Middle and Right: Lengths of CldU (light grey) and IdU (dark grey) incorporated DNA segments measured for more than 30 independent DNA strands from the indicated cancer cell type were averaged and graphed ±S.D. FIG. 7C: Whole cell lysates were extracted from SK-N-AS cells homozygous of the wildtype RPB1 allele or the APIM-mutant allele. Histone H2A.X and γH2A.X was analyzed by Western blot after treatment with or without AOH1996 overnight. FIG. 7D: Histone H2A.X and γH2A.X in whole cell lysates from SK-N-AS cells were analyzed by Western blot after treatment with 500 nM AOH1996 and/or 50 μM DRB overnight. […]
structure (smiles),measurement,setting,value
"COc1cccc(Oc2ccccc2NC(=O)CNC(=O)c2cccc3ccccc23)c1 [AOH1996, N-(2-((2-(3-methoxyphenoxy)phenyl)amino)-2-oxoethyl)-1-naphthamide]",GI50,[1],~300 nM
same,half-life,"[2]; 40 mg/kg, mice",4.33 h
same,increase in area under curve (AUC) vs AOH1160,"[2]; 40 mg/kg, mice",~4%
same,increase in half-life vs AOH1160,"[2]; 40 mg/kg, mice",~27%
same,increase in peak concentration (Cmax) vs AOH1160,"[2]; 40 mg/kg, mice",~40%
same,absorption into circulation,"[2]; animals, data not shown",~90%
same,length of IdU-incorporated DNA strands,[3],IdU-incorporated DNA strands became significantly shorter in cells treated by AOH1996 than untreated control cells
